ChEMBL document CHEMBL1201862, “PubChem BioAssay data set” (2004)
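Method: 48-hour compound exposure of cells in 96-well plates, five concentrations, linear interpolation of endpoints. Abbreviation: GI50, concentration required for 50% inhibition of growth.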 Calls of active or inactive are those of the source. Rule as the data show it: active = GI50 up to about 1.1 µM and inactive = higher.

Assays:
Assay in all cases: DTP human tumour cell line panel, 48 h
A498 = tested on: A498
HCT-116 = tested on: HCT-116
COLO 205 = tested on: COLO 205
KM-20L2 = tested on: KM-20L2
TK-10 = tested on: TK-10
SW-620 = tested on: SW-620
HOP-62 = tested on: HOP-62
XF498 = tested on: XF498
OVCAR-3 = tested on: OVCAR-3
SF-268 = tested on: SF-268
M14 = tested on: M14
A549 = tested on: A549
SNB-19 = tested on: SNB-19
NCI-H23 = tested on: NCI-H23
NCI-H226 = tested on: NCI-H226
786-0 = tested on: 786-0
UACC-62 = tested on: UACC-62
DLD-1 = tested on: DLD-1
UO-31 = tested on: UO-31
EKVX = tested on: EKVX
ACHN = tested on: ACHN
OVCAR-5 = tested on: OVCAR-5
SF-539 = tested on: SF-539
CCRF-CEM = tested on: CCRF-CEM
NCI-H460 = tested on: NCI-H460
DMS-273 = tested on: DMS-273
RXF 393 = tested on: RXF 393
OVCAR-8 = tested on: OVCAR-8
NCI-H522 = tested on: NCI-H522
HCT-15 = tested on: HCT-15
HT-29 = tested on: HT-29
U-251 = tested on: U-251
LXFL 529 = tested on: LXFL 529
HCC 2998 = tested on: HCC 2998
SF-295 = tested on: SF-295
SNB-75 = tested on: SNB-75
HL-60 = tested on: HL-60
K562 = tested on: K562
SK-OV-3 = tested on: SK-OV-3
SN12C = tested on: SN12C
HOP-92 = tested on: HOP-92
SK-MEL-5 = tested on: SK-MEL-5
IGROV-1 = tested on: IGROV-1
SNB-78 = tested on: SNB-78
KM12 = tested on: KM12
LOX IMVI = tested on: LOX IMVI
MOLT-4 = tested on: MOLT-4
DMS-114 = tested on: DMS-114
OVCAR-4 = tested on: OVCAR-4
RPMI-8226 = tested on: RPMI-8226
SK-MEL-28 = tested on: SK-MEL-28
SK-MEL-2 = tested on: SK-MEL-2
CAKI-1 = tested on: CAKI-1
UACC-257 = tested on: UACC-257
M19-MEL = tested on: M19-MEL
Malme-3M = tested on: Malme-3M
SR = tested on: SR

In the case of `CC(C)[C@@H](COC(C)(C)C)/N=C/N1CCc2c([nH]c3ccccc23)C1`, the GI50 (A498) is reported as > 100 µM (inactive), the GI50 (HCT-116) is reported as > 100 µM (inactive) and the GI50 (COLO 205) is reported as > 100 µM (inactive). For the same molecule, the GI50 (KM-20L2) was > 100 µM (inactive), the GI50 (TK-10) was > 100 µM (inactive) and the GI50 (SW-620) was > 100 µM (inactive). The GI50 (HOP-62) was > 100 µM (inactive), the GI50 (XF498) was 36.1 µM (inactive) and the GI50 (OVCAR-3) was > 100 µM (inactive). For the same molecule, the GI50 (SF-268) was > 100 µM (inactive), the GI50 (M14) was > 100 µM (inactive) and the GI50 (A549) was > 100 µM (inactive). The GI50 (SNB-19) was > 100 µM (inactive), the GI50 (NCI-H23) was > 100 µM (inactive) and the GI50 (NCI-H226) was > 100 µM (inactive). For the same molecule, the GI50 (786-0) was > 100 µM (inactive), the GI50 (UACC-62) was > 100 µM (inactive) and the GI50 (DLD-1) was > 100 µM (inactive). For the same molecule, the GI50 (UO-31) was 84.9 µM (inactive), the GI50 (EKVX) was > 100 µM (inactive) and the GI50 (ACHN) was > 100 µM (inactive). For the same molecule, the GI50 (OVCAR-5) was > 100 µM (inactive), the GI50 (SF-539) was > 100 µM (inactive) and the GI50 (CCRF-CEM) was > 100 µM (inactive). For the same molecule, the GI50 (NCI-H460) was > 100 µM (inactive), the GI50 (DMS-273) was > 100 µM (inactive) and the GI50 (RXF 393) was > 100 µM (inactive). The GI50 (OVCAR-8) was > 100 µM (inactive), the GI50 (NCI-H522) was > 100 µM (inactive) and the GI50 (HCT-15) was > 100 µM. The GI50 (HT-29) was > 100 µM (inactive), the GI50 (U-251) was > 100 µM (inactive) and the GI50 (LXFL 529) was > 100 µM (inactive). The GI50 (HCC 2998) was 80 µM (inactive), the GI50 (SF-295) was > 100 µM (inactive) and the GI50 (SNB-75) was > 100 µM (inactive). The GI50 (HL-60) was > 100 µM (inactive), the GI50 (K562) was > 100 µM (inactive) and the GI50 (SK-OV-3) was > 100 µM (inactive). For the same molecule, the GI50 (SN12C) was > 100 µM (inactive), the GI50 (HOP-92) was 21.5 µM (inactive) and the GI50 (SK-MEL-5) was > 100 µM (inactive). The GI50 (IGROV-1) was > 100 µM (inactive), the GI50 (SNB-78) was > 100 µM (inactive) and the GI50 (KM12) was > 100 µM (inactive). The GI50 (LOX IMVI) was > 100 µM (inactive), the GI50 (MOLT-4) was > 100 µM (inactive) and the GI50 (DMS-114) was > 100 µM (inactive). The GI50 (OVCAR-4) was > 100 µM (inactive), the GI50 (RPMI-8226) was > 100 µM (inactive) and the GI50 (SK-MEL-28) was > 100 µM (inactive). The GI50 (SK-MEL-2) was > 100 µM (inactive).

In the case of `CCOC(=O)Nc1cc2nnc(-c3ccccc3)nc2c(N)n1`, the GI50 (CAKI-1) is reported as 27.6 µM (inactive), the GI50 (HCT-116) is reported as 10.9 µM (inactive) and the GI50 (COLO 205) is reported as 2.73 µM (inactive). For the same molecule, the GI50 (KM-20L2) was 4.25 µM (inactive), the GI50 (TK-10) was 37.5 µM (inactive) and the GI50 (SW-620) was 14.6 µM (inactive). The GI50 (HOP-62) was 17.3 µM (inactive), the GI50 (XF498) was 31.4 µM (inactive) and the GI50 (OVCAR-3) was 6.43 µM (inactive). The GI50 (SF-268) was 29.2 µM (inactive), the GI50 (M14) was 4.06 µM (inactive) and the GI50 (A549) was 4.81 µM (inactive). The GI50 (SNB-19) was 32.1 µM (inactive), the GI50 (NCI-H23) was 14.1 µM (inactive) and the GI50 (NCI-H226) was 24 µM (inactive). For the same molecule, the GI50 (786-0) was 10.4 µM (inactive), the GI50 (UACC-62) was 9.35 µM (inactive) and the GI50 (DLD-1) was 18.6 µM (inactive). For the same molecule, the GI50 (UO-31) was 27.9 µM (inactive), the GI50 (EKVX) was 43.7 µM (inactive) and the GI50 (ACHN) was 5.7 µM (inactive). The GI50 (OVCAR-5) was 23.1 µM (inactive), the GI50 (SF-539) was 18.4 µM (inactive) and the GI50 (CCRF-CEM) was 32.1 µM (inactive). The GI50 (NCI-H460) was 3.28 µM (inactive), the GI50 (DMS-273) was 7.36 µM (inactive) and the GI50 (RXF 393) was 18 µM (inactive). For the same molecule, the GI50 (OVCAR-8) was 23.6 µM (inactive), the GI50 (NCI-H522) was > 10 µM (inactive) and the GI50 (HCT-15) was 6.46 µM. The GI50 (HT-29) was 6.07 µM (inactive), the GI50 (U-251) was 30.5 µM (inactive) and the GI50 (UACC-257) was 15.7 µM (inactive). For the same molecule, the GI50 (LXFL 529) was 32.1 µM (inactive), the GI50 (M19-MEL) was 4.35 µM (inactive) and the GI50 (HCC 2998) was 15.8 µM (inactive). For the same molecule, the GI50 (SF-295) was 3.52 µM (inactive), the GI50 (SNB-75) was 14.9 µM (inactive) and the GI50 (HL-60) was 17.7 µM (inactive). For the same molecule, the GI50 (K562) was 5.14 µM (inactive), the GI50 (SK-OV-3) was 2.45 µM (inactive) and the GI50 (SN12C) was 35.2 µM (inactive). For the same molecule, the GI50 (Malme-3M) was 4.8 µM (inactive), the GI50 (HOP-92) was 13 µM (inactive) and the GI50 (SK-MEL-5) was 2.23 µM (inactive). The GI50 (IGROV-1) was 13.9 µM (inactive), the GI50 (KM12) was 1.1 µM (active) and the GI50 (LOX IMVI) was 14.7 µM (inactive). For the same molecule, the GI50 (SR) was 23.9 µM (inactive), the GI50 (DMS-114) was 27.6 µM (inactive) and the GI50 (OVCAR-4) was 14.9 µM (inactive). The GI50 (RPMI-8226) was 24.3 µM (inactive), the GI50 (SK-MEL-28) was 16.2 µM (inactive) and the GI50 (SK-MEL-2) was 11.4 µM (inactive).
